In PubChem BioAssay AID330 (DTP/NCI, 2004):
“And” between values parts separate entries of the source, which are not always exact repeats. Equal entries are not always repeated. Inconclusive results and toxic doses are left out. Rule for the calls: active = survival T/C of 150% or more; inactive = T/C below 125% in these data.

Tested on: P388 leukemia ip, CD2F1 mice, survival T/C
Experiment: NCI In Vivo Anticancer Drug Screen. Data for tumor model P388 Leukemia (intraperitoneal) in CD2F1 (CDF1) mice
Settings: endpoint: median survival time, higher = longer survival
How it was run: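 Mice carrying the transplanted tumor received test compound or vehicle. Survival was recorded in each group, and the value is the treated-group measurement divided by that of the vehicle-treated control group.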

[1] = dose: 50.0 mg/kg/injection, schedule: Q01DX009 (ip), vehicle: saline with Tween-80
[2] = dose: 100.0 mg/kg/injection, schedule: Q01DX009 (ip), vehicle: saline with Tween-80
[3] = dose: 200.0 mg/kg/injection, schedule: Q01DX009 (ip), vehicle: saline with Tween-80
[4] = dose: 50.0 mg/kg/injection, schedule: Q01DX005 (ip), vehicle: saline with Tween-80
[5] = dose: 100.0 mg/kg/injection, schedule: Q01DX005 (ip), vehicle: saline with Tween-80
[6] = dose: 100.0 mg/kg/injection, schedule: Q04DX002 (ip), vehicle: saline with Tween-80
[7] = dose: 200.0 mg/kg/injection, schedule: Q01DX005 (ip), vehicle: saline with Tween-80
[8] = dose: 200.0 mg/kg/injection, schedule: Q04DX002 (ip), vehicle: saline with Tween-80
[9] = dose: 50.0 mg/kg/injection, schedule: Q01DX005 (ip), vehicle: Klucel (hydroxypropylcellulose) (HPC)
[10] = dose: 100.0 mg/kg/injection, schedule: Q01DX005 (ip), vehicle: Klucel (hydroxypropylcellulose) (HPC)
[11] = dose: 200.0 mg/kg/injection, schedule: Q01DX005 (ip), vehicle: Klucel (hydroxypropylcellulose) (HPC)
[12] = dose: 25.0 mg/kg/injection, schedule: Q01DX005 (ip), vehicle: saline
[13] = dose: 50.0 mg/kg/injection, schedule: Q01DX005 (ip), vehicle: saline
[14] = dose: 100.0 mg/kg/injection, schedule: Q01DX001 (ip), vehicle: saline with Tween-80
[15] = dose: 200.0 mg/kg/injection, schedule: Q01DX001 (ip), vehicle: saline with Tween-80
[16] = dose: 25.0 mg/kg/injection, schedule: Q01DX009 (ip), vehicle: saline with Tween-80
[17] = dose: 60.0 mg/kg/injection, schedule: Q01DX005 (ip), vehicle: Klucel (hydroxypropylcellulose) (HPC)
[18] = dose: 120.0 mg/kg/injection, schedule: Q01DX005 (ip), vehicle: Klucel (hydroxypropylcellulose) (HPC)
[19] = dose: 240.0 mg/kg/injection, schedule: Q01DX005 (ip), vehicle: Klucel (hydroxypropylcellulose) (HPC)

Measured: T/C

Cc1c(-c2ccccc2)n(O)c(-c2ccc(N(C)C)cc2)[n+]1[O-]
inactive: [1] 98 % of control | [2] 92 % of control | [3] 91 % of control

NC(=O)c1[nH]cnc1O
inactive: dose: 12.5 mg/kg/injection, schedule: Q01DX005 (ip), vehicle: saline with Tween-80 114 % of control | dose: 25.0 mg/kg/injection, schedule: Q01DX005 (ip), vehicle: saline with Tween-80 107 % of control | [4] 108 % of control and 123 % of control | [5] 114 % of control and 123 % of control | [6] 100 % of control | [7] 123 % of control | [8] 110 % of control

O=P1(N2CCOCC2)OC(c2ccccc2)=CCN1c1ccccc1 (centres undefined)
inactive: [9] 103 % of control | [10] 103 % of control | [11] 104 % of control

O=C1OC(CCCl)CN1Cc1ccccc1 (centres undefined)
inactive: dose: 50.0 mg/kg/injection, schedule: Q01DX009 (ip), vehicle: saline 103 % of control | dose: 100.0 mg/kg/injection, schedule: Q01DX009 (ip), vehicle: saline 103 % of control | dose: 200.0 mg/kg/injection, schedule: Q01DX009 (ip), vehicle: saline 98 % of control

CN(C)CCCNC(=O)c1ccc2c(c1O)C(=O)c1ccccc1C2=O
inactive: dose: 12.5 mg/kg/injection, schedule: Q01DX005 (ip), vehicle: saline 105 % of control | [12] 109 % of control | [13] 114 % of control

O=C(Nc1ccc2c(c1)oc(=O)c1ccccc12)C(Cl)Cl
inactive: [4] 96 % of control | [5] 98 % of control | [7] 89 % of control

CCOC(=O)CC1=CSC(=C(C#N)C#N)N1c1ccccc1
inactive: [4] 102 % of control | [5] 98 % of control | [7] 98 % of control

CC1C(=O)C(Cl)(Cl)C1(C)C (centres undefined)
inactive: [14] 106 % of control | [15] 110 % of control

CCOC(=O)C1=CC2CCOC2O1 (centres undefined)
inactive: dose: 60.0 mg/kg/injection, schedule: Q01DX005 (ip), vehicle: saline with Tween-80 95 % of control | dose: 120.0 mg/kg/injection, schedule: Q01DX005 (ip), vehicle: saline with Tween-80 95 % of control | dose: 240.0 mg/kg/injection, schedule: Q01DX005 (ip), vehicle: saline with Tween-80 101 % of control

CC(=O)N1C(C(=O)O)Cc2c([nH]c3ccccc23)C1(C)C (centres undefined)
inactive: dose: 100.0 mg/kg/injection, schedule: Q01DX001 (ip), vehicle: suspension in saline 108 % of control | dose: 200.0 mg/kg/injection, schedule: Q01DX001 (ip), vehicle: suspension in saline 95 % of control | dose: 400.0 mg/kg/injection, schedule: Q01DX001 (ip), vehicle: suspension in saline 107 % of control

O=C1c2ccccc2C(=O)N1CC[P+](c1ccccc1)(c1ccccc1)c1ccccc1
inactive: dose: 0.78 mg/kg/injection, schedule: Q01DX009 (ip), vehicle: water 87 % of control | dose: 1.56 mg/kg/injection, schedule: Q01DX009 (ip), vehicle: water 112 % of control and 103 % of control and 115 % of control | dose: 3.13 mg/kg/injection, schedule: Q01DX009 (ip), vehicle: saline with Tween-80 121 % of control | dose: 3.13 mg/kg/injection, schedule: Q01DX009 (ip), vehicle: water 123 % of control and 118 % of control and 120 % of control | dose: 6.25 mg/kg/injection, schedule: Q01DX009 (ip), vehicle: saline with Tween-80 88 % of control | dose: 12.5 mg/kg/injection, schedule: Q01DX009 (ip), vehicle: water 123 % of control and 105 % of control | dose: 18.8 mg/kg/injection, schedule: Q01DX009 (ip), vehicle: water 93 % of control | [16] 123 % of control | dose: 25.0 mg/kg/injection, schedule: Q01DX009 (ip), vehicle: water 98 % of control

COc1ccc(OC)c2c(Cl)cc(NCCCCCCCCNc3cc(Cl)c4c(OC)ccc(OC)c4n3)nc12
inactive: dose: 30.0 mg/kg/injection, schedule: Q01DX005 (ip), vehicle: Klucel (hydroxypropylcellulose) (HPC) 101 % of control | [17] 101 % of control | [18] 100 % of control | [19] 100 % of control

C1CCN2CC3CC(CN4CCCCC34)C2C1 (centres undefined)
inactive: dose: 1.87 mg/kg/injection, schedule: Q01DX005 (ip), vehicle: saline 100 % of control | dose: 3.75 mg/kg/injection, schedule: Q01DX005 (ip), vehicle: saline 101 % of control | dose: 6.2 mg/kg/injection, schedule: Q01DX007 (ip), vehicle: carboxymethylcellulose (CMC) 91 % of control | dose: 7.5 mg/kg/injection, schedule: Q01DX005 (ip), vehicle: saline 102 % of control | dose: 12.5 mg/kg/injection, schedule: Q01DX007 (ip), vehicle: carboxymethylcellulose (CMC) 100 % of control | dose: 15.0 mg/kg/injection, schedule: Q01DX005 (ip), vehicle: saline 100 % of control | [12] 92 % of control | dose: 25.0 mg/kg/injection, schedule: Q01DX007 (ip), vehicle: carboxymethylcellulose (CMC) 91 % of control | [13] 99 % of control

COc1cccc2c1C(=O)c1c(O)c3c(c(O)c1C2=O)CC(O)(C(=O)CBr)CC3OC(C)=O (centres undefined)
inactive: dose: 1.56 mg/kg/injection, schedule: Q01DX009 (ip), vehicle: other 109 % of control | dose: 3.13 mg/kg/injection, schedule: Q01DX009 (ip), vehicle: other 103 % of control | dose: 6.25 mg/kg/injection, schedule: Q01DX009 (ip), vehicle: other 105 % of control | dose: 12.5 mg/kg/injection, schedule: Q01DX009 (ip), vehicle: other 113 % of control | dose: 25.0 mg/kg/injection, schedule: Q01DX009 (ip), vehicle: other 109 % of control

Cc1cc(=O)c2c(ccc3[nH]c(-c4ccco4)nc32)[nH]1
inactive: [14] 94 % of control | [15] 100 % of control | dose: 400.0 mg/kg/injection, schedule: Q01DX001 (ip), vehicle: saline with Tween-80 92 % of control

CC(C)(C)C1=CC(CC(N)=O)(C(C)(C)C)OC1=O (centres undefined)
inactive: [9] 98 % of control | [10] 100 % of control | [11] 105 % of control

CCCCOP(O)(=S)OCCCC.[Tb]
inactive: [6] 100 % of control | [8] 96 % of control | dose: 400.0 mg/kg/injection, schedule: Q04DX002 (ip), vehicle: saline with Tween-80 95 % of control

COC(=O)c1ccccc1NC(=O)CN1C(=O)c2ccccc2C1=O
inactive: dose: 100.0 mg/kg/injection, schedule: Q04DX003 (ip), vehicle: saline with Tween-80 96 % of control | dose: 200.0 mg/kg/injection, schedule: Q04DX003 (ip), vehicle: saline with Tween-80 102 % of control | dose: 400.0 mg/kg/injection, schedule: Q04DX003 (ip), vehicle: saline with Tween-80 88 % of control

Oc1ccccc1C=Nc1cccnc1
inactive: dose: 12.5 mg/kg/injection, schedule: Q01DX009 (ip), vehicle: saline with Tween-80 96 % of control | [16] 101 % of control | [1] 87 % of control

O[B]c1nc2ccccc2c2ccccc12
inactive: [17] 105 % of control | [18] 102 % of control | [19] 119 % of control

COc1ccc(C(=O)c2no[n+]([O-])c2C(=O)c2ccc(OC)cc2)cc1
inactive: [16] 108 % of control | [1] 104 % of control and 107 % of control | [2] 100 % of control and 106 % of control | [3] 115 % of control | dose: 400.0 mg/kg/injection, schedule: Q01DX009 (ip), vehicle: saline with Tween-80 123 % of control

COc1ccc(/C(N)=N/OCc2ccc(C#N)cc2)cc1
inactive: dose: 50.0 mg/kg/injection, schedule: Q01DX009 (ip), vehicle: Klucel (hydroxypropylcellulose) (HPC) 96 % of control | dose: 100.0 mg/kg/injection, schedule: Q01DX009 (ip), vehicle: Klucel (hydroxypropylcellulose) (HPC) 93 % of control | dose: 200.0 mg/kg/injection, schedule: Q01DX009 (ip), vehicle: Klucel (hydroxypropylcellulose) (HPC) 95 % of control

C=CC1=C(C)C2=NC1=CC1=NC(=CC3=C(C)C4=C(O)C(C(=O)O)C(=C5NC(=C2)C(C)C5CCC(=O)O)C4=N3)C(CC)=C1C (centres undefined)
inactive: dose: 50.0 mg/kg/injection, schedule: Q01DX005 (ip), vehicle: suspension in saline 98 % of control | dose: 100.0 mg/kg/injection, schedule: Q01DX005 (ip), vehicle: suspension in saline 103 % of control | dose: 200.0 mg/kg/injection, schedule: Q01DX005 (ip), vehicle: suspension in saline 98 % of control
